Measurements published in the supplement of paper PMC11451515.

What was measured:
Conditions in all cases: 48 h
SEM cells [1] = assay: cell viability relative to DMSO control; higher = less cytotoxic
How it was run: (§1)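 Viability is expressed as a percentage of DMSO wells within each plate, and cell-free wells serve as background. Seeding densities in the 1536-well plates (5 μl) were 500 cells/well for NOMO1 or SEM leukemia cells and 1000 cells/well for P12-Ichikawa. Each line was adapted for at least four passages in each medium. Library compounds in DMSO were pin-dosed at 47 μM to 0.79 nM (11 points, threefold), and CellTiter-Glo One luminescence was read after 48 h at 37°C.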

P12-Ichikawa [2] = assay: as above
How it was run: as §1

NOMO1 [3] = assay: as above
How it was run: as §1

SEM cells [4] = assay: AUC of viability dose-response curve (% viability x log10 dose units); higher = less sensitive
How it was run: (§2)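 In 1536-well plates, leukemia cells adapted to each medium (500 or 1000 cells/well) were exposed for 48 h at 37°C to library compounds in DMSO across 11 threefold doses, 47 μM down to 0.79 nM. Viability was read by CellTiter-Glo One luminescence and normalised per plate to DMSO and cell-free wells. A four-parameter log-logistic fit over log10 doses was integrated by trapezoidal rule. This yielded the area under the curve, with over-full-viability curves scaled and quality-control failures dropped.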

P12-Ichikawa [5] = assay: as above
How it was run: as §2

NOMO1 [6] = assay: as above
How it was run: as §2

N=C(NCCCCCCNC(=N)NC(=N)Nc1ccc(Cl)cc1)NC(=N)Nc1ccc(Cl)cc1
cell viability [%]
Conditions | NOMO1 [3] | P12-Ichikawa [2] | SEM cells [1]
HPLM + 10% dialyzed FBS, 0.000781 µM | 82 | 89.4 | 95.6
HPLM + 10% dialyzed FBS, 0.00234 µM | 88.2 | 95.2 | 104
HPLM + 10% dialyzed FBS, 0.00702 µM | 100 | 93 | 95.6
HPLM + 10% dialyzed FBS, 0.0211 µM | 90.4 | 95.7 | 95.2
HPLM + 10% dialyzed FBS, 0.0632 µM | 106 | 92.6 | 101
HPLM + 10% dialyzed FBS, 0.19 µM | 111 | 93.3 | 104
HPLM + 10% dialyzed FBS, 0.569 µM | 105 | 95.2 | 104
HPLM + 10% dialyzed FBS, 1.71 µM | 113 | 101 | 93.9
HPLM + 10% dialyzed FBS, 5.12 µM | 89 | 92.9 | 92.2
HPLM + 10% dialyzed FBS, 15.4 µM | 87.6 | 97.9 | 86.8
HPLM + 10% dialyzed FBS, 46.1 µM | 56.5 | 93.8 | 52
RPMI 5 mM glucose + 10% FBS, 0.000781 µM | 75.4 | 83.8 | 98.4
RPMI 5 mM glucose + 10% FBS, 0.00234 µM | 92.9 | 82.8 | 102
RPMI 5 mM glucose + 10% FBS, 0.00702 µM | 79.1 | 92.1 | 104
RPMI 5 mM glucose + 10% FBS, 0.0211 µM | 96.3 | 90.1 | 97.5
RPMI 5 mM glucose + 10% FBS, 0.0632 µM | 96.1 | 93.6 | 93.4
RPMI 5 mM glucose + 10% FBS, 0.19 µM | 85.5 | 97.6 | 107
RPMI 5 mM glucose + 10% FBS, 0.569 µM | 93.2 | 91.4 | 96.4
RPMI 5 mM glucose + 10% FBS, 1.71 µM | 88.5 | 80.2 | 104
RPMI 5 mM glucose + 10% FBS, 5.12 µM | 91.1 | 95.1 | 107
RPMI 5 mM glucose + 10% FBS, 15.4 µM | 87.4 | 81.2 | 97.6
RPMI 5 mM glucose + 10% FBS, 46.1 µM | 30.9 | 56.3 | 68
RPMI 5 mM glucose + 10% dialyzed FBS, 0.000781 µM | 79.5 | 85.4 | 83.6
RPMI 5 mM glucose + 10% dialyzed FBS, 0.00234 µM | 88.9 | 85.3 | 92.9
RPMI 5 mM glucose + 10% dialyzed FBS, 0.00702 µM | 90.6 | 90.4 | 93.4
RPMI 5 mM glucose + 10% dialyzed FBS, 0.0211 µM | 90.5 | 86.9 | 87.9
RPMI 5 mM glucose + 10% dialyzed FBS, 0.0632 µM | 105 | 94.1 | 89.3
RPMI 5 mM glucose + 10% dialyzed FBS, 0.19 µM | 103 | 95.5 | 96.7
RPMI 5 mM glucose + 10% dialyzed FBS, 0.569 µM | 101 | 87.5 | 90.9
RPMI 5 mM glucose + 10% dialyzed FBS, 1.71 µM | 105 | 88.1 | 85.8
RPMI 5 mM glucose + 10% dialyzed FBS, 5.12 µM | 100 | 86 | 103
RPMI 5 mM glucose + 10% dialyzed FBS, 15.4 µM | 85.6 | 89.3 | 80.9
RPMI 5 mM glucose + 10% dialyzed FBS, 46.1 µM | 41.5 | 70.3 | 42.1

AUC of viability dose-response curve
Conditions | NOMO1 [6] | P12-Ichikawa [5] | SEM cells [4]
HPLM + 10% dialyzed FBS | 454 | 452 | 453
RPMI 5 mM glucose + 10% FBS | 409 | 416 | 468
RPMI 5 mM glucose + 10% dialyzed FBS | 440 | 419 | 420
